Columns and labels:
[1] = tested on: tissue norepinephrine and dopamine levels; test: Tissue catecholamines in beagle dogs, 10, 30, 60 mg/kg/day for 4.5 days; assay type: in vivo
Procedure: This study was performed to determine the dopamine and norepinephrine concentrations in kidney medulla and kidney cortex from dogs dosed with nepicastat. Adult male beagle dogs were randomly assigned to four groups of 8 dogs per group and dosed by oral administration with nepicastat. Nepicastat was delivered in doses of 5, 15 and 30 mg/kg placed in single capsules. Vehicle was an empty capsule. Each dog received 2 doses daily, morning and afternoon (8-10 hours apart) for four days. On the fifth day, each dog received a single dose in the morning and the dogs were euthanized six hours after the last dose. Samples of kidney medulla and kidney cortex were rapidly harvested, weighed, placed in cold 0.4 M perchloric acid, frozen in liquid nitrogen and stored at −70° C.
To quantitate concentrations of norepinephrine (NE) and dopamine (D), each tissue was homogenized by brief sonication in 0.4 M perchloric acid. After sonication, the homogenates were centrifuged at 13,000 rpm in a microfuge for 30 minutes at 4° C. An aliquot of each supernatant was removed and spiked with 3,4-dihydroxybenzylamine (DHBA) as internal standard. The extract from each sample was subjected to HPLC separation using electrochemical detection. The method has a quantitation limit of 2.0 ng/mL and a linear range of 2.0 ng/mL to 400 ng/mL for each analyte.
Nepicastat was weighed and put into capsules (size 13—Torpac; East Hanover, N.J.) to yield doses of 5, 15, and 30 mg/kg per capsule (given b.i.d. to yield doses of 10, 30 and 60 mg/kg/day). The initial dog weight was used to determine the dose for each animal. Dogs receiving 0 mg/kg/day received empty capsules (placebo). All doses of nepicastat were administered as free base equivalents.
Thirty-two male beagle dogs, weighing 10-12 kg, were randomly assigned to one of the following 4 treatment groups (n=8 per group): nepicastat at 0 mg/kg/day (placebo), 10 mg/kg/day (5 mg/kg b.i.d.), 30 mg/kg (15 mg/kg b.i.d.), or 60 mg/kg/day (30 mg/kg b.i.d.). Dog numbers 1-16 were assigned as dose group A and dog numbers 17-32 as dose group B. The terminal surgery for tissue harvest was performed over 2 days with 16 animals studied per day. Two or 3 days before the first compound administration each dog was weighed and skin regions overlying both cephalic, saphenous and jugular veins were shaved. Dosing consisted of oral administration of one capsule with the second given 8-10 hr later. Dogs were dosed as scheduled on days 1-3. On day 4, prior to the AM dose, 3 ml of blood were obtained from a jugular vein for determination of baseline plasma compound levels. The dog was then administered the AM dose, and at 1, 2, 4 and 8 hr following the dose additional 3 ml blood samples were collected for determination of plasma compound levels. Blood samples were put into tubes containing heparin, centrifuged at 4° C. and stored at −20° C. until analysis. The PM dose was then administered as scheduled. The AM dose was administered as scheduled on the days of surgery. Approximately 6 hr after the AM dose, a final 3 ml blood sample was taken from the jugular vein for determination of plasma compound levels. The dog was then anesthetized with pentobarbital Na (˜40 mg/kg), given iv in a cephalic or saphenous vein, and delivered to the necropsy room where an additional dose of pentobarbital Na was given (˜80 mg/kg, iv). The left ventricle, renal artery, kidney, renal medulla, renal cortex and cerebral cortex were then rapidly harvested, weighed, put into 2 ml iced 0.4M perchloric acid, frozen in liquid nitrogen and stored at −70° C. until analysis for catecholamines by HPLC using electrochemical detection. All tissue samples were divided into 2 portions, the second of which were immediately frozen in liquid nitrogen and stored at −70° C. for determination of tissue compound levels. A third transmural sample taken from the left ventricle was immediately frozen in liquid nitrogen and stored at −70° C. for use in receptor binding studies. […]

[2] = tested on: mice; test: Acute toxicity study, single oral doses; assay type: in vivo; conditions: single oral doses of 250, 1000, or 2500 mg/kg
Procedure: Dose selection was based on an acute toxicity study in which mice were administered single oral doses of 250, 1000, or 2500 mg/kg of Nepicastat.

[3] = Plasma levels of nepicastat and N-acetyl metabolite in dogs, 2 mg/kg b.i.d.; assay type: in vivo, beagle dogs; conditions: 2 mg/kg bid, sampled 6 h after AM dose
Procedure: Male Beagle dogs (Marshall farms, North Rose, N.Y.) weighing between 9-16 kg were used in the study. The animals were allowed water ad libitum and given food once daily at ˜10.00 AM. Animals were randomly assigned to one of the following treatment groups (n=8/group): placebo (empty capsule), or nepicastat at 2 mg/kg b.i.d (4 mg/kg/day). Each animal received 2 doses daily, morning and afternoon (8-10 hours apart). Daily blood samples (10 ml) were drawn 6 h after the AM dose for measurement of plasma levels of nepicastat and catecholamines. The blood was collected in tubes containing heparin and glutathione and centrifuged at −4° C. within 1 h of collection. The plasma was separated and divided into two samples, one for the measurement of plasma catecholamines and the other for analysis of nepicastat.
Plasma NE, DA and EPI were anaylysed by HPLC using electrochemical detection. Plasma concentration of nepicastat was determined by HPLC using electrochemical detection.

[4] = tested on: plasma renin activity; test: Plasma renin activity after 5 days oral dosing; assay type: in vivo, SHR; conditions: 30 and 100 mg/kg/d p.o. for 5 days
[5] = tested on: sympathetically-evoked functional responses; test: Sympathetically-evoked functional responses in anesthetized dogs; assay type: in vivo, beagle dogs
[6] = 60 mg/kg/day, marginal (0.05<p<0.10)

## Cl.NCc1c[nH]c(=S)n1[C@H]1CCc2c(F)cc(F)cc2C1 [nepicastat, (S)-5-Aminomethyl-1-(5,7-difluoro-1,2,3,4-tetrahydronaphth-2-yl)-2,3-dihydro-2-thioxo-1H-imidazole hydrochloride]
[1]; 10 mg/kg/day
  decrease in norepinephrine, left ventricle: 85%
  decrease in norepinephrine, renal artery: 86%
  decrease in norepinephrine, renal cortex: 86%
  decrease in norepinephrine, renal medulla: 72%
  increase in dopamine, cerebral cortex: 632%
  increase in dopamine, renal artery: 180%
  increase in dopamine, renal cortex: 156%
  increase in dopamine/norepinephrine ratio, cerebral cortex: 531%
  increase in dopamine/norepinephrine ratio, left ventricle: 852%
  increase in dopamine/norepinephrine ratio, renal artery: 1711%
  increase in dopamine/norepinephrine ratio, renal cortex: 1653%
  increase in dopamine/norepinephrine ratio, renal medulla: 555%
[1]; 10 mg/kg/day, marginal (0.05<p<0.10)
  increase in dopamine, renal medulla: 150%
[1]; 30 mg/kg/day
  decrease in norepinephrine, left ventricle: 58%
  decrease in norepinephrine, renal artery: 81%
  decrease in norepinephrine, renal cortex: 66%
  increase in dopamine, renal artery: 273%
  increase in dopamine, renal cortex: 502%
  increase in dopamine, renal medulla: 522%
  increase in dopamine/norepinephrine ratio, cerebral cortex: 86%
  increase in dopamine/norepinephrine ratio, left ventricle: 279%
  increase in dopamine/norepinephrine ratio, renal artery: 1767%
  increase in dopamine/norepinephrine ratio, renal cortex: 1440%
  increase in dopamine/norepinephrine ratio, renal medulla: 636%
  reduction in norepinephrine, cerebral cortex: 63%
[1]; 30 mg/kg/day, marginal (0.05<p<0.10)
  increase in dopamine, cerebral cortex: 174%
[1]; 60 mg/kg/day
  decrease in norepinephrine, left ventricle: 79%
  decrease in norepinephrine, renal artery: 85%
  decrease in norepinephrine, renal cortex: 85%
  increase in dopamine, cerebral cortex: 411%
  increase in dopamine, renal artery: 268%
  increase in dopamine, renal cortex: 208%
  increase in dopamine/norepinephrine ratio, cerebral cortex: 612%
  increase in dopamine/norepinephrine ratio, left ventricle: 607%
  increase in dopamine/norepinephrine ratio, renal artery: 1944%
  increase in dopamine/norepinephrine ratio, renal cortex: 1693%
  increase in dopamine/norepinephrine ratio, renal medulla: 677%
[1]; [6]
  decrease in norepinephrine, renal medulla: 69%
  increase in dopamine, renal medulla: 156%
[1]; 10, 30 and 60 mg/kg/day
  dopamine levels, left ventricle: No significant changes
[1]; 10 and 60 mg/kg/day
  norepinephrine levels, cerebral cortex: not significantly (p>0.01) affected
[2]
  acute toxicity: Clinical signs of toxicity and death occurred at 1000 and 2500 mg/kg
[3]
  time of peak plasma levels of the drug: 2 days post-dose
[4]
  plasma renin activity: did not alter plasma renin activity
[5]; 10 mg/kg/d for 4.5 days
  heart rate response to i.v. tyramine challenge: significantly reduced the increase in heart rate
[5]; 30 mg/kg intraduodenally, up to 5 hours
  inhibition of responses to renal nerve stimulation and carotid artery occlusion: did not significantly inhibit
